Reference: US11985974B2, “Antimicrobial ferulic acid derivatives and uses thereof” (WISCONSIN ALUMNI RESEARCH FOUNDATION, priority 2014, dated 2024)
≈ marks a conversion by molar mass, not a printed value.

Tests used:
[1] = tested on: poacic acid-resistant mutant (SUR1); test: Poacic acid-resistant mutant (PAr) with SNP in SUR1; format: cell-based, Saccharomyces cerevisiae
Description: Agar containing 500 μg/mL poacic acid was inoculated with ˜1 million cells of yeast (control strain). After 1 wk, two colonies were found growing on the agar. Single-colony isolates were obtained and found to be resistant to poacic acid. For whole-genome sequencing, single-colony isolates of poacic acid-resistant mutant, the caspofungin-resistant mutant, and the control strain (WT) were grown in triplicate 200-μL cultures and pooled for genomic DNA extraction (Epicentre MasterPure Yeast Kit; MPY80200). The genomic DNA was prepared for Illumina whole-genome sequencing using the Illumina TruSeqKkit (FC-121-3001) and sequenced by 150-bp paired-end reads on the MiSeq platform.
To determine mutations in the drug-resistant mutants, read quality analysis was performed using FastQC (www.bioinformatics.babraharm.ac.uk/projects/fastqc/). Short reads were examined for quality and trimmed at the 3′ end when average base quality in a 3-nt window fell below Q30. Short reads were mapped to the standard S. cerevisiae reference genome, strain S288c (obtained from the National Center for Biotechnology Information RefSeq repository), using Burrows-Wheeler Alignment (BWA version 0.6.2) (Li et al. 2009) using the default parameters, with the exception of the fraction of missing alignments threshold, which was set at 0.08 (−n in bwa aln). […]

β-1,3-glucan synthase = tested on: T1, β-1,3-glucan synthase; test: β-1,3-glucan synthase activity in the membrane fraction; format: biochemical, S. cerevisiae BY4741; settings: 25° C., 30 min
T1 construct: membrane fraction was prepared from S. cerevisiae BY4741
Description: After the membrane fraction was prepared from S. cerevisiae BY4741 as described previously (n=3) (Abe et al. 2001), β-1,3-glucan synthase activity was measured as described previously (n=3) (Inoue et al. 1995) with slight modification. Briefly, 20 μL membrane fraction (˜70 μg total protein) was added to a reaction mixture (final volume of 100 μL) containing 50 mM Tris·HCl, pH 7.5, 10 mM potassium fluoride, 1 mM EDTA, 0.2 mM UDP-Glc (with 89 Bq UDP-[Glucose-14C]; NEC403; PerkinElmer), and different concentrations of poacic acid (1.25, 2.5, 5, 10, 20, 40, 80, 160, or 320 μg/mL). The reaction mixture was incubated at 25° C. for 30 min and stopped by the addition of ethanol. To trap reaction product (β-1,3-glucan polymer), the reaction mixture was filtered through the membrane filter (mixed cellulose esters; 0.2 μm in pore size; ADVANTEC), washed one time with 2 mL distilled water, and dried at room temperature. After addition of scintillation mixture (Econofluor-2; PerkinElmer), radioactivity was measured by a scintillation counter (LSC-6100; Aloka) Inhibition curves and IC50 values were determined using R software (ver. 3.0.1) by sigmoidal curve fitting with the glm function.

S. sclerotiorum = test: Inhibition of S. sclerotiorum in planta on detached soybean leaves; format: in vivo, Sclerotinia sclerotiorum on soybean (Williams 82); settings: single aerosol treatment 500 μg/mL before inoculation, up to 120 h postinoculation
Description: (§1) To test inhibition in liquid culture, a dose curve of 0, 125, 250, and 500 μg/mL poacic acid in 100 mL potato dextrose broth (n=3) was used. Cultures of S. sclerotiorum strain 1980 were inoculated with 100 μL homogenized mycelia and grown at 25° C. for 48 h. The mycelia in the liquid media were dried and weighed. The growth inhibition of poacic acid on solid agar cultures (potato dextrose agar) was assessed by generating replicate plates (n=3) containing 0, 125, 250, and 500 μg/mL poacic acid. Plates were inoculated with an actively growing plug of S. sclerotiorum and grown at 25° C. The mycelial radial growth after 48 h was measured Inhibition of S. sclerotiorum in planta was tested by inoculating detached soybean leaves of the commercial variety Williams 82 with an agar plug of actively growing S. sclerotiorum mycelia. Leaves were treated one time before inoculation with either an aerosol spray of water with DMSO (control) or a 500 μg/mL solution of poacic acid. Leaves were incubated in a moist environment, and lesion development was monitored up to 120 h postinoculation. […] The growth inhibition of poacic acid was assessed at 0, 500, 1,000, and 1,500 μg/mL in replicate plates (n=3). […] Colony diameter was monitored for each treatment in a time-course experiment. […]

[2] = Cell-free glucan staining (binding to purified yeast glucan); settings: 0.125% (wt/vol) poacic acid, fluorescence
Description: β-1,3-Glucan was stained with aniline blue (016-21302; Wako Chemicals) as described previously (Watanabe et al. 2001) with slight modification. Briefly, log-phase yeast cells (his3Δ) were cultured in YPD with poacic acid (125 μg/mL) at 25° C. Then, cells were collected at 0, 2, 4, and 6 h after treatment and stained with aniline blue without fixation as described previously (Okada et al. 2015). Cells mounted on a glass slide were exposed to UV for 30 s to bleach out poacic acid fluorescence before acquiring images. Staining of chitin or mannoproteins with calcofluor white (F3543; Sigma-Aldrich) or Alexa594-ConA (C11253; Life Technologies), respectively, was performed as described previously (Okada et al. 2015). For cell-free glucan staining, yeast glucan (G0331; Tokyo Chemical Industry) was suspended to 0.125% (wt/vol) poacic acid and observed under a fluorescent microscope using a regular DAPI filter set (Carl Zeiss).

[3] = tested on: S. sclerotiorum strain 1980; test: Growth inhibition of S. sclerotiorum in liquid and agar culture; format: cell-based, Sclerotinia sclerotiorum; settings: 0, 125, 250, 500 μg/mL, 48 h, P<0.01
Description: as §1

Q: With COc1cc(/C=C/c2cc(/C=C/C(=O)O)cc(OC)c2O)ccc1O [poacic acid, (E)-4-Hydroxy-3-{2-[(E)-4-hydroxy-3-methoxystyryl]}-5-methoxycinnamic acid] as the molecule, how does the “resistance compared with the control strain” value ([1]; PAr mutant with SNP in SUR1) read?
A: increased resistance

Q: And the “colony formation on agar” value ([1]; spontaneous chain-termination mutant in SUR1, agar with 500 μg poacic acid/mL)?
A: able to form colonies

Q: What about the “IC50 (β-1,3-glucan synthase activity in vitro)” value (β-1,3-glucan synthase) of the same molecule?
A: 31 µg/mL (≈ 90.6 µM)

Q: And the “lesion development on detached soybean leaves” value (S. sclerotiorum)?
A: markedly reduced lesion development

Q: What about the “binding to purified yeast glucan” value [2] of the same molecule?
A: directly binds β-1,3-glucan

Q: What about the “colony radial growth on agar plates” value [3] of the same molecule?
A: dose-dependent decrease

Q: What about the “fungal mass (mycelia weight) in liquid culture” value [3] of the same molecule?
A: dose-dependent decrease
